# Measured values published in PMC5424146, “Activity-based protein profiling as a robust method for enzyme identification and screening in extremophilic Archaea” (Nature Communications, 2017).
# Legend:
# TM_1022 [1] = target: T1, TM_1022 (Thermotoga maritima, UniProt G4FEX6); assay: esterase activity, pNP-octanoate hydrolysis, lysate of double knockout expressing TM_[…]; also competitive labelling at […]; type: biochemical; details: pNP-octanoate 0.5 mM; pH 8.0; 35 °C; pre-incubation 1 h at 60 °C; covalent
# T1 construct: gene with own promoter (about 500 bp upstream; pSVA-p-tm1022) in S. acidocaldarius esterase double knockout
# T1 sequence (G4FEX6 1-253): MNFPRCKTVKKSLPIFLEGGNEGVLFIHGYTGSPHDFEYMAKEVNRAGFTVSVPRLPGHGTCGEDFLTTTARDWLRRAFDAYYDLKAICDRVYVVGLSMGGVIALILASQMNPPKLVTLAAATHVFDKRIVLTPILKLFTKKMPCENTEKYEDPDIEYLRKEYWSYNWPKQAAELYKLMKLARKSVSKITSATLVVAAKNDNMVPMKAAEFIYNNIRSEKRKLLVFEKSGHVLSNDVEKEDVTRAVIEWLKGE
# [2] = target: T2, acetylesterase Saci_1116 (1116) (Sulfolobus acidocaldarius, UniProt Q4J9R2); assay: esterase activity, pNP-octanoate hydrolysis at […] nm, lysate of delta […] strain; type: biochemical; details: pNP-octanoate 0.5 mM; pH 8.0; 35 °C; pre-incubation 1 h at 60 °C; covalent
# T2 construct: full gene under the maltose promoter (pSVA-saci_1116) in the esterase double knockout, or native protein in the delta 1105 strain
# T2 sequence (Q4J9R2 1-305): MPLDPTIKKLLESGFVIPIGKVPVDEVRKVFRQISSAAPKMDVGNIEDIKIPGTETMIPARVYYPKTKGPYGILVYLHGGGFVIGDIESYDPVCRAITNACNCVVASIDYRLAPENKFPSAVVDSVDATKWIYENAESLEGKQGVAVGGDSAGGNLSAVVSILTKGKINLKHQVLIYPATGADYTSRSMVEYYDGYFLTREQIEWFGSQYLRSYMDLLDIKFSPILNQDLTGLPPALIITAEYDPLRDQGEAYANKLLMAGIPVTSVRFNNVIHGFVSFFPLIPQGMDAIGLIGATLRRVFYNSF
# [3] = target: T3, esterase/lipase Saci_1105 (1105) (Sulfolobus acidocaldarius, UniProt Q4J9S2); assay: biochemical
# T3 construct: full gene under the maltose promoter (pSVAmZ-saci_1105) in S. acidocaldarius esterase double knockout; crude lysate or living cells
# TM_1022 [4] = target: T1, TM_1022; assay: halo on indicator plate, double knockout expressing TM_[…]; type: cell-based; details: 1% (v/v) in plate; 78 °C; up to 3 days
# T3 sequence (Q4J9S2 1-306): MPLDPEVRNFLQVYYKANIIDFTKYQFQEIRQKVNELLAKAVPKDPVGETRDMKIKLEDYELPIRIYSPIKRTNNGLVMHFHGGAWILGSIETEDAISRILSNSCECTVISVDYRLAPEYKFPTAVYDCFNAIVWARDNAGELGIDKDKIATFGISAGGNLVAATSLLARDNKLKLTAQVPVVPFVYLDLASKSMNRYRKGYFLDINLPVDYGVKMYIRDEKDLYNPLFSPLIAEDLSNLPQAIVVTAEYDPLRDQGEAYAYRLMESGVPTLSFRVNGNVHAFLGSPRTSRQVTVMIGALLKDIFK
smiles,measurement,setting,value
CCOP(=O)(OCC)Oc1ccc([N+](=O)[O-])cc1 [paraoxon],reduced activity at 250 μM,TM_1022 [1],pre-incubation with paraoxon led in all cases to a significantly reduced esterase activity
same,reduced activity at 250 μM,[2],pre-incubation with paraoxon led in all cases to a significantly reduced esterase activity
"C#CCNC(=O)OCCOCCOCCOCCP(=O)(OCC)Oc1ccc([N+](=O)[O-])cc1 (centres unmarked) [compound 2, NP≡]",IC50,[3],150 nM
CCCCCC(=O)OCC(COC(=O)CCCCC)OC(=O)CCCCC [tricaproin],"halo on indicator plate, double knockout expressing TM_1022",TM_1022 [4],the halo for the tricaproin substrate was thereby slightly larger than for tributyrate
CCCC(=O)OCC(COC(=O)CCC)OC(=O)CCC [tributyrin],"halo on indicator plate, double knockout expressing TM_1022",TM_1022 [4],"For both substrates, a time-dependent formation of a halo could be observed for this culture"
